# Marks after values point to notes of the source that are not given here.
# Legend:
# [1] = test system: CD1 mice; format: in vivo; conditions: 40 or 60 mg/kg i.v. bolus
# [2] = test system: P388 murine leukemia; test: Antitumor activity against P388 murine leukemia in mice (survival time, T/C %); format: in vivo
# Description: Animals: mice were provided by Charles River Breeding Laboratories (Calco, Como, Italy); they were male mice of 6-8 weeks under standard housing conditions. Formulations: BBR 2778 dissolved and diluted in sterile water just before administration of 10 mg/kg to mice was used as reference. The liposome formulation of Example 4 was used. Tumor model: P388 murine leukemia, provided by NCI Frederick Cancer Facility (USA) is maintained through a series of intraperitoneal transplants in DBA2 mice. Mice were transplanted with 10^6 cells/mouse of P388 leukemia, the liposome compound and the reference standard were administered i.v. at days 1, 4, 7 after tumor transplant. The antitumor activity was determined as percent increase in the survival time of mice, expressed by the T/C % ratio of the mean survival time (TMS) of the treated group (T) to the mean survival time of the control group (C): […]
# [3] = test system: mice; conditions: male, mouse, in vivo, iv, 40 mg/kg
# Description: The liposome formulations according to the invention were tested in vivo for the antitumor activity and toxicity. […] In particular, the inhibitory activity on sudden deaths was evaluated compared with the control group, which was administered with a formulation of the free drug.
smiles,measurement,setting,value
"NCCNc1ccc(NCCN)c2c1C(=O)c1ccncc1C2=O.O=C(O)/C=C\C(=O)O [BBR 2778 solution, 6,9-bis-[(2-aminoethyl)amino]benzo[g]isoquinoline-5,10-dione dimaleate]",death during or immediately after treatment,[1],death of some animals is observed
same,T/C %,"[2]; 18 mg/kg/day i.v. at days 1, 4, 7 after tumor transplant",199** %
same,T/C %,"[2]; 27 mg/kg/day i.v. at days 1, 4, 7 after tumor transplant",226** %
same,T/C %,"[2]; 40 mg/kg/day i.v. at days 1, 4, 7 after tumor transplant, dimaleate",159** %
same,T/C %,"[2]; 40 mg/kg/day i.v. at days 1, 4, 7 after tumor transplant, listed as BBR 2778 in solution, dimaleate",159%
same,T/C %,"[2]; 60 mg/kg/day i.v. at days 1, 4, 7 after tumor transplant",36** %
same,toxicity (percent toxic deaths),[3],60.4%

# Reference: patent US7449197B2, “Liposome formulation of 6,9-bis[(2-aminoethyl)-amino]benzo[g]isoquinoline-5, 10-dione dimaleate” (Cell Therapeutics Europe S.r.l., priority 1999, dated 2008)
